These results are taken from patent publication US20120004166A1, “ARYLOXYALKYLENE-SUBSTITUTED HYDROXYPHENYLHEXYNOIC ACIDS, PROCESS FOR PREPARATION THEREOF AND USE THEREOF AS A MEDICAMENT” (SANOFI, priority 2010, published 2012).

SMILES strings stand for the structures.

This experiment concerns the target T1, GPCR GPR40 (Rattus norvegicus, UniProt Q8K3T4).
T1 construct: expressed in transfected cells; host or cells: HEK293
The experiment is described as follows: In vitro FLIPR assay with recombinant cells which express the GPCR GPR40. In kind it is cell-based. The note with it: recombinant HEK293 cells expressing rat GPR40; agonist-induced change in intracellular Ca2+ (Fluo-4, FLIPR); 100% = 10 μM linoleic acid. As to the method:
In Vitro FLIPR Assay with Recombinant Cells which Express the GPCR GPR40
Function-testing assays were performed by means of the FLIPR technique (“Fluorescence Imaging Plate Reader”, Molecular Devices Corp.). To this end, agonist-induced changes in the intracellular concentration of Ca^2+ were determined in recombinant HEK293 cells which expressed the GPCR GPR40 (species: rat). For the studies, cells were sown into 96-well microtiter plates (60 000 cells/well) and left to grow overnight. The medium was removed and the cells were incubated in buffer which contained the fluorescent dye Fluo-4. After this loading with dye, the cells were washed, test substance was added and changes in the intracellular Ca^2+ concentration were measured in the FLIPR unit. Results were presented as the percentage change relative to the control (0%: no test substance added; 100%: 10 μM reference agonist linoleic acid added) and used to calculate dose/effect curves, and EC50 values were determined.

T1 sequence (Q8K3T4 whole entry): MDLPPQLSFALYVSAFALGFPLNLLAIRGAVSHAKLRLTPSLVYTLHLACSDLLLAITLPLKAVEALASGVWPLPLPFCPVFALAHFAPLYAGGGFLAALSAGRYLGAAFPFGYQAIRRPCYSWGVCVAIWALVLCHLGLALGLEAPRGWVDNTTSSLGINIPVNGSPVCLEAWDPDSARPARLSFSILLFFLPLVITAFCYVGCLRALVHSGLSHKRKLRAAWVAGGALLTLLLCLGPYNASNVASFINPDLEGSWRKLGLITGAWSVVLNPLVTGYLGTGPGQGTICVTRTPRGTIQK

For the molecule `CC#CC(CC(=O)O)c1ccc(OCCC(C)Oc2ccc(C(F)(F)F)cc2)cc1` (single isomer, unassigned) [Example 23, 3-{4-[(S or R)-3-(4-Trifluoromethylphenoxy)butoxy]phenyl}hex-4-ynoic acid], the EC50 came to 210 nM.
In the case of `CC#CC(CC(=O)O)c1ccc(OCCC(C)Oc2ccc(C(F)(F)F)cc2)cc1` (single isomer, unassigned) [Example 24, 3-{4-[(R or S)-3-(4-Trifluoromethylphenoxy)butoxy]phenyl}hex-4-ynoic acid], the EC50 came out at 980 nM.
`CC#CC(CC(=O)O)c1ccc(OCCCOc2cccc(C(C)(C)C)c2)cc1` (centres unmarked) [Example 1, 3-{4-[3-(3-tert-Butylphenoxy)propoxy]phenyl}hex-4-ynoic acid]: the 50% effective concentration (EC50) stood at 440 nM.
Turning to `CC#CC(CC(=O)O)c1ccc(OCCOc2cccc(C(C)(C)C)c2)cc1` (centres unmarked) [Example 2, 3-{4-[2-(3-tert-Butylphenoxy)ethoxy]phenyl}hex-4-ynoic acid], the concentration giving a half-maximal response (EC50) turned out to be 50 nM.
Regarding `CC#CC(CC(=O)O)c1ccc(OCCCCOc2cccc(C(C)(C)C)c2)cc1` (centres unmarked) [Example 3, 3-{4-[4-(3-tert-Butylphenoxy)butoxy]phenyl}hex-4-ynoic acid], the concentration for a half-maximal effect (EC50) is 350 nM.
`CC#CC(CC(=O)O)c1ccc(OCCCOc2ccc(C(F)(F)F)cc2Cl)cc1` (centres unmarked) [Example 4, 3-{4-[3-(2-chloro-4-trifluoromethylphenoxy)propoxy]phenyl}hex-4-ynoic acid]: the EC50 stood at 110 nM.
Regarding `CC#CC(CC(=O)O)c1ccc(OCCCOc2cc(C(F)(F)F)cc(C(F)(F)F)c2)cc1` (centres unmarked) [Example 5, 3-{4-[3-(3,5-bis(Trifluoromethyl)phenoxy)propoxy]phenyl}hex-4-ynoic acid], the half-maximal effective concentration (EC50) stood at 400 nM.
Consider `CC#CC(CC(=O)O)c1ccc(OCCCOc2ccccc2C(F)(F)F)cc1` (centres unmarked) [Example 6, 3-{4-[3-(2-Trifluoromethylphenoxy)propoxy]phenyl}hex-4-ynoic acid], for which the EC50 was found to be 170 nM.
`CC#CC(CC(=O)O)c1ccc(OCCCOc2cccc(C(F)(F)F)c2Cl)cc1` (centres unmarked) [Example 7, 3-{4-[3-(2-Chloro-3-trifluoromethylphenoxy)propoxy]phenyl}hex-4-ynoic acid]: the concentration for a half-maximal effect (EC50) came out at 720 nM.
In the case of `CC#CC(CC(=O)O)c1ccc(OCCCOc2ccc(C(F)(F)F)nc2)cc1` (centres unmarked) [Example 8, 3-{4-[3-(6-Trifluoromethylpyridin-3-yloxy)propoxy]phenyl}hex-4-ynoic acid], the EC50 is 350 nM.
Then `CC#CC(CC(=O)O)c1ccc(OCCCOc2cc(C(F)(F)F)ccc2Cl)cc1` (centres unmarked) [Example 9, 3-{4-[3-(2-Chloro-5-trifluoromethylphenoxy)propoxy]phenyl}hex-4-ynoic acid], with 610 nM; and `CC#CC(CC(=O)O)c1ccc(OCCOc2ccc(C(F)(F)F)nc2)cc1` (centres unmarked) [Example 10, 3-{4-[2-(6-Trifluoromethylpyridin-3-yloxy)ethoxy]phenyl}hex-4-ynoic acid], with 550 nM; and `CC#CC(CC(=O)O)c1ccc(OCCCOc2ccc(C(F)(F)F)cc2)cc1` (centres unmarked) [Example 11, 3-{4-[3-(4-Trifluoromethylphenoxy)propoxy]phenyl}hex-4-ynoic acid], with 80 nM.
For the molecule `CC#CC(CC(=O)O)c1ccc(OCCCOc2cccc(C)c2)cc1` (centres unmarked) [Example 12, 3-{4-[3-m-Tolyloxypropoxy]phenyl}hex-4-ynoic acid], the EC50 was 70 nM.
On to `CC#CC(CC(=O)O)c1ccc(OCCOc2cccc(Cl)c2)cc1` (centres unmarked) [Example 13], for which the EC50 is 40 nM.
For the molecule `CC#CC(CC(=O)O)c1ccc(OCCOc2cccc(C)c2)cc1` (centres unmarked) [Example 14, 3-{4-[2-m-Tolyloxyethoxy]phenyl}hex-4-ynoic acid], the EC50 came out at 50 nM.
As to `CC#CC(CC(=O)O)c1ccc(OCCOc2cccc(C(F)(F)F)c2)cc1` (centres unmarked) [Example 15, 3-{4-[2-(3-Trifluoromethylphenoxy)ethoxy]phenyl}hex-4-ynoic acid], the EC50 is 60 nM.
As to `CC#CC(CC(=O)O)c1ccc(OCCOc2ccc(C(C)(C)C)cc2)cc1` (centres unmarked) [Example 16, 3-{4-[2-(4-tert-Butylphenoxy)ethoxy]phenyl}hex-4-ynoic acid], the EC50 was found to be 610 nM.
In the case of `CC#CC(CC(=O)O)c1ccc(OCCOc2ccccc2)cc1` (centres unmarked) [Example 17, 3-{4-[2-Phenoxyethoxy]phenyl}hex-4-ynoic acid] it was 360 nM; in that of `CC#CC(CC(=O)O)c1ccc(OCCOc2ccccc2F)cc1` (centres unmarked) [Example 18, 3-{4-[2-(2-Fluorophenoxy)ethoxy]phenyl}hex-4-ynoic acid], 460 nM; in that of `CC#CC(CC(=O)O)c1ccc(OCCOc2ccccc2Cl)cc1` (centres unmarked) [Example 19, 3-{4-[2-(2-Chlorophenoxy)ethoxy]phenyl}hex-4-ynoic acid], 180 nM.
As to `CC#CC(CC(=O)O)c1ccc(OCCOc2ccccc2C)cc1` (centres unmarked) [Example 20, 3-{4-[2-o-Tolyloxyethoxy]phenyl}hex-4-ynoic acid], the EC50 worked out at 80 nM.
In the case of `CC#CC(CC(=O)O)c1ccc(OCCOc2ccccc2OC)cc1` (centres unmarked) [Example 21, 3-{4-[2-(2-Methoxyphenoxy)ethoxy]phenyl}hex-4-ynoic acid] it was 800 nM; in that of `CC#CC(CC(=O)O)c1ccc(OCCOc2ccccc2C(F)(F)F)cc1` (centres unmarked) [Example 22, 3-{4-[2-(2-Trifluoromethylphenoxy)ethoxy]phenyl}hex-4-ynoic acid], 50 nM.
Regarding `CC#CC(CC(=O)O)c1ccc(OC(C)CCOc2ccc(C(F)(F)F)cc2)cc1` (centres unmarked) [Example 25, 3-{4-[1-Methyl-3-(4-trifluoromethylphenoxy)propoxy]phenyl}hex-4-ynoic acid], the half-maximal effective concentration (EC50) was determined as 1990 nM.
Turning to `CC#CC(CC(=O)O)c1ccc(OCCC(C)Oc2cccc(C)c2)cc1` (centres unmarked) [Example 26, 3-[4-(3-m-Tolyloxybutoxy)phenyl]-hex-4-ynoic acid], the EC50 was 50 nM.
For `CC#CC(CC(=O)O)c1ccc(OCC[C@@H](C)Oc2cccc(C)c2)cc1` (stereo partly drawn) [Example 27, 3-[4-((R)-3-m-Tolyloxybutoxy)phenyl]hex-4-ynoic acid], the EC50 worked out at 50 nM.
In the case of `CC#CC(CC(=O)O)c1ccc(OCC[C@H](C)Oc2cccc(C)c2)cc1` (stereo partly drawn) [Example 28, 3-[4-((S)-3-m-Tolyloxybutoxy)phenyl]hex-4-ynoic acid], the EC50 was 50 nM.
Consider `CC#CC(CC(=O)O)c1ccc(OCC[C@@H](C)Oc2ccccc2C(F)(F)F)cc1` (stereo partly drawn) [Example 29, 3-{4-[(R)-3-(2-Trifluoromethylphenoxy)butoxy]phenyl}hex-4-ynoic acid], for which the 50% effective concentration (EC50) came out at 170 nM.
Take `CC#CC(CC(=O)O)c1ccc(OCC[C@H](C)Oc2ccccc2C(F)(F)F)cc1` (stereo partly drawn) [Example 30, 3-{4-[(S)-3-(2-Trifluoromethylphenoxy)butoxy]phenyl}hex-4-ynoic acid]: the 50% effective concentration (EC50) worked out at 140 nM.
Then `CC#CC(CC(=O)O)c1ccc(OCC[C@@H](C)Oc2ccc(C(F)(F)F)cc2Cl)cc1` (stereo partly drawn) [Example 31, 3-{4-[(R)-3-(2-Chloro-4-trifluoromethylphenoxy)butoxy]phenyl}hex-4-ynoic acid], with 640 nM; and `CC#CC(CC(=O)O)c1ccc(OCC[C@H](C)Oc2ccc(C(F)(F)F)cc2Cl)cc1` (stereo partly drawn) [Example 32, 3-{4-[(S)-3-(2-Chloro-4-trifluoromethylphenoxy)butoxy]phenyl}hex-4-ynoic acid], with 770 nM; and `CC#CC(CC(=O)O)c1ccc(OC(C)CCOc2cccc(C(C)(C)C)c2)cc1` (centres unmarked) [Example 33, 3-{4-[3-(3-tert-Butylphenoxy)-1-methylpropoxy]phenyl}hex-4-ynoic acid], with 1610 nM.
Take `CC#CC(CC(=O)O)c1ccc(OCC(C)COc2ccc(C(F)(F)F)cc2)cc1` (centres unmarked) [Example 34, 3-{4-[2-Methyl-3-(4-trifluoromethylphenoxy)propoxy]phenyl}hex-4-ynoic acid]: the EC50 stood at 810 nM.
As for `CC#CC(CC(=O)O)c1ccc(OCC(C)COc2cccc(C(C)(C)C)c2)cc1` (centres unmarked) [Example 35, 3-{4-[3-(3-tert-Butylphenoxy)-2-methylpropoxy]phenyl}hex-4-ynoic acid], the EC50 stood at 1090 nM.
Turning to `CC#CC(CC(=O)O)c1ccc(OCC(C)COc2cc(C)ccc2C(C)C)cc1` (centres unmarked) [Example 36, 3-{4-[3-(2-Isopropyl-5-methylphenoxy)-2-methylpropoxy]phenyl}hex-4-ynoic acid], the EC50 was 1590 nM.
As to `CC#CC(CC(=O)O)c1ccc(OCC(C)COc2ccc(C(C)(C)C)cc2Cl)cc1` (centres unmarked) [Example 37, 3-{4-[3-(4-tert-Butyl-2-chlorophenoxy)-2-methylpropoxy]phenyl}hex-4-ynoic acid], the EC50 was determined as 6010 nM.
For `CC#CC(CC(=O)O)c1ccc(OCC(C)COc2ccccc2C(F)(F)F)cc1` (centres unmarked) [Example 38, 3-{4-[2-methyl-3-(2-trifluoromethylphenoxy)propoxy]phenyl}hex-4-ynoic acid], the EC50 worked out at 730 nM.
Then `CC#CC(CC(=O)O)c1ccc(OCC(C)COc2cc(C(C)C)ccc2C)cc1` (centres unmarked) [Example 39, 3-{4-[3-(5-Isopropyl-2-methylphenoxy)-2-methylpropoxy]phenyl}hex-4-ynoic acid], with 3200 nM; and `CC#CC(CC(=O)O)c1ccc(OCC(C)COc2ccc(Br)c(Cl)c2)cc1` (centres unmarked) [Example 40, 3-{4-[3-(4-Bromo-3-chlorophenoxy)-2-methylpropoxy]phenyl}hex-4-ynoic acid], with 830 nM.
In the case of `CC#CC(CC(=O)O)c1ccc(OCC(C)(C)COc2ccc(C(F)(F)F)cc2)cc1` (centres unmarked) [Example 41, 3-{4-[2,2-dimethyl-3-(4-trifluoromethylphenoxy)propoxy]phenyl}hex-4-ynoic acid], the concentration giving a half-maximal response (EC50) is 800 nM.
